Experimental data taken from patent publication US20210317090A1, “AMINO ACID DEPLETION AGENTS AS ANTIPROLIFERATIVE AGENTS” (University of Central Florida Research Foundation, Inc., priority 2018, published 2021).
Read-outs that look alike come from different tables or passages of the source.

Assays:
[1] = test system: L3.6pl human pancreatic cancer cells; assay: Cytotoxicity dose-response (MTS) in L3.6pl cells; type: cell-based; details: for IC50: Homo sapiens, L3.6pl cells
Protocol: L3.6pl Studies. Compounds 9 and 10 were evaluated in the metastatic human pancreatic cancer cell line, L3.6pl. L3.6pl has a K-ras mutation, and high polyamine uptake activity.^7 A dose-response curve was obtained for each compound in L3.6pl cells to determine the 72 h L3.6pl IC50 value, described as the dose at which L3.6pl cells were 50% viable compared to the untreated control.
Regarding the biological studies performed in the following examples, it is noted that CHO K1, CHO-MG, and L3.6pl cells were grown in RPMI 1640 medium supplemented with 10% fetal bovine serum (FBS) and 1% penicillin/streptomycin. All cells were grown at 37° C. under a humidified 5% CO2 atmosphere. Aminoguanidine (1 mM used for CHO K1 and CHOMG cells and 250 μM for L3.6pl) was added to the growth medium to prevent oxidation of the compounds of the bovine serum amine oxidase enzyme that is present in calf serum. The cells used were in early to mid log phase and CHO and CHOMG were plated out at 1000 cells/well, whereas the L3.6pl cells were plated at 500 cells/well in a 96 well plate format.
This example illustrates aspects according to various embodiments pertaining to IC50 determinations and cell viability studies. Cell growth was assayed in sterile 96-well microtiter plates (Costar 3599, Corning, N.Y.). CHO K1 or CHOMG cells were plated at 1,000 cells/70 μL and L3.6pl cells at 500 cells/70 μL. The drug solutions of appropriate concentration in phosphate buffered saline (PBS) were added 10 μL per well after overnight incubation. After drug exposure (e.g., for 48 h for CHO K1 and CHO-MG and 48 h or 72 h for L3.6pl), cell growth was determined by measuring formazan formation from the 3-(4,5dimethylthiazol-2-yl)-5-(3-carboxymethoxyphenyl)-2-(4-sulfenyl)-2H tetrazolium, inner salt (MTS) using SynergyMx Biotek microplate reader for absorbance (490 nm) measurements.^27 All experiments were run in triplicate.

L3.6pl cells = assay: Analytes in supernatant of L3.6pl cells (LCMS); type: cell-based, human; details: 72 h
Source text: One way to affect both spermidine and spermine pools is to decrease methionine supply, which in turn would inhibit the formation of the decarboxylated S-adenosylmethionine needed to provide the aminopropyl fragment required for spermidine and spermine synthesis. Since methionine, leucine and phenylalanine all use the LAT1/SLC3A2 transporter to enter cells, it was hypothesized that 10 was inhibiting LAT-1 mediated amino acid import. To test this hypothesis, the development of various embodiments involved measuring the amino acid concentrations in the supernatants of cells incubated with compound 10 at 2 and 5 μM for 72 h.
This example illustrates aspects according to various embodiments pertaining to a 72 h experiment with Compound 10 in L3.6pl cells. Ten milliliters of a cell suspension containing L3.6pl human pancreatic cancer cells (50,000 cells/mL) and aminoguanidine ([…]) were placed in treated plastic Petri dishes (d=9 cm) and incubated overnight at 37° C. After 24 h, the cells were dosed with compound 10 at 2 μM, 5 μM, or 7 μM. (Note: Stock solutions of 10 at 2, 5, and 7 mM were dissolved in phosphate buffered saline (PBS) and were filtered through a 0.2 μm filter prior to use. The experiments were maintained with a total volume of 10.01 mL where 10 mL of the cell suspension was placed in a plastic dish and each compound or the equivalent PBS volume was added to make up the total volume 10.01 mL for each dish. For example, for the control experiment PBS (10 μL) was added to make up the total volume (10 mL+10 μL=10.01 mL). After 72 h incubation, the cells were collected first by pipetting off the supernatant containing floating dead cells from the culture dish as well as media and placing them into 15 mL tubes. The supernatant containing floating cells was centrifuged (4 min at 1,000 rpm). The cell-free supernatant (supernatant #1) was collected into a new 15 mL tube and quantified (˜8.6 mL) and was then stored frozen and was later quantified by LCMS to investigate the media composition of particular polyamine and amino acid analytes. The attached cells on the dish were washed with PBS (5 mL). The PBS wash was removed by suction and additional PBS (2 mL) was added and again suctioned off to provide twice-washed cells still adhered to the dish. Trypsin (2 mL) was then added to each dish and incubated (3-5 min) until all the cells were detached. Fresh media (8 mL) was added to quench the trypsin. The cell solutions were pipetted into separate 15 mL tubes and centrifuged (4 min at 1,000 rpm). The resulting supernatant was removed to provide a pellet. The pellet was suspended in PBS (10 mL) and was counted by a hemocytometer to provide cell counts for each experimental condition. The pellet was then centrifuged (4 min at 1,000 rpm) and the supernatant removed and the remaining pellet was quantified via protein and polyamine analysis.
This example illustrates aspects according to various embodiments pertaining to an LCMS Analysis. The respective supernatant (10 μL) was injected on a Thermo HPLC system equipped with PAL CTC plate sampler (96-well plate), Dionex Ultimate 3000 binary pump (flow rate at 0.25 mL/min), Dionex Ultimate 3000 thermostatted column compartment (temperature at 40° C.), Thermo Endura Mass Spectrometer (ESI source), using Thermo Scientific Accucore C18 (2.6 μm, 2.1×50 mm, 100 Å) column under a gradient of acetonitrile w/0.1% heptafluorobutyric acid (HFBA) in H2O w/0.1% HFBA from 2% at minute 0 to 60% at minute 5.0, to 99% at minute 6.5 held until minute 7.5 and then reduced back to 2% until minute 10 to re-equilibrate the column for the next injection. The peak area was measured and analyte amounts were calculated referring to analyte calibration curves. Analyte levels were adjusted with internal standard concentration for extraction efficiency. Peak height measurements were conducted referring to values obtained for standards of known concentrations. […]

CHO-MG cells = assay: Rescue by exogenous native polyamines in CHO-MG cells; type: cell-based, Chinese hamster; details: toxic concentration of compound 10 (results not shown)

Question: What does the source list for `CC(C)CCN1CCN(C(CNCc2ccccc2)CC2CCCCC2)CC1CC(C)C.Cl.Cl.Cl` (centres unmarked) [Compound 10, Benzyl-{3-cyclohexyl-2-[3-isobutyl-4-(3-methyl-butyl)-piperazin-1-yl]-propyl}-amine trihydrochloride salt]?
Answer: IC50 ([1]; 48 h, read-out: 48 h IC50): 3.48 ± 0.3 µM; IC50 ([1]; 72 h, read-out: 72 h IC50): 5.9 ± 0.2 µM; toxicity of compound alone ([1]; L3.6pl, second highest concentration tested (1 μM), 72 h): nontoxic; toxicity to L3.6pl cancer cells relative to CHO K1 and CHO-MG cell lines ([1]; from 48 h IC50 values): approximately three fold more toxic; Supernatant level Acetyl spermidine (L3.6pl cells; 2 μM): 1649 ± 18 pmoles/mg protein; Supernatant level Acetyl spermine (L3.6pl cells; 2 μM): 49 ± 10 pmoles/mg protein; Supernatant level Agmatine (L3.6pl cells; 2 μM): 297 ± 163 pmoles/mg protein; Supernatant level Arginine (L3.6pl cells; 2 μM): 18396 ± 70 pmoles/mg protein; Supernatant level Glutamic acid (L3.6pl cells; 2 μM): 20231 ± 649 pmoles/mg protein; Supernatant level Leucine (L3.6pl cells; 2 μM): 15055 ± 1043 pmoles/mg protein; Supernatant level Methionine (L3.6pl cells; 2 μM): 17686 ± 2432 pmoles/mg protein; Supernatant level Ornithine (L3.6pl cells; 2 μM): 9249 ± 306 pmoles/mg protein; Supernatant level Phenylalanine (L3.6pl cells; 2 μM): 11954 ± 828 pmoles/mg protein; Supernatant level Putrescine (L3.6pl cells; 2 μM): 938 ± 70 pmoles/mg protein; Supernatant level Spermidine (L3.6pl cells; 2 μM): 131 ± 26 pmoles/mg protein; Supernatant level Spermine (L3.6pl cells; 2 μM): 2532 ± 406 pmoles/mg protein; Supernatant level Acetyl spermidine (L3.6pl cells; 5 μM): 1706 ± 29 pmoles/mg protein; Supernatant level Acetyl spermine (L3.6pl cells; 5 μM): 36 ± 4 pmoles/mg protein; Supernatant level Agmatine (L3.6pl cells; 5 μM): 485 ± 176 pmoles/mg protein; Supernatant level Arginine (L3.6pl cells; 5 μM): 43243 ± 2047 pmoles/mg protein; Supernatant level Glutamic acid (L3.6pl cells; 5 μM): 34033 ± 540 pmoles/mg protein; Supernatant level Leucine (L3.6pl cells; 5 μM): 202092 ± 23817 pmoles/mg protein; Supernatant level Methionine (L3.6pl cells; 5 μM): 64036 ± 5454 pmoles/mg protein; Supernatant level Ornithine (L3.6pl cells; 5 μM): 15951 ± 118 pmoles/mg protein; Supernatant level Phenylalanine (L3.6pl cells; 5 μM): 160462 ± 18910 pmoles/mg protein; Supernatant level Putrescine (L3.6pl cells; 5 μM): 2224 ± 98 pmoles/mg protein; Supernatant level Spermidine (L3.6pl cells; 5 μM): 167 ± 32 pmoles/mg protein; Supernatant level Spermine (L3.6pl cells; 5 μM): 2690 ± 889 pmoles/mg protein; rescue of treated cells by native polyamines (CHO-MG cells): unable to rescue
